These results are taken from publication PMC8358460, “Structural basis for the binding of the cancer targeting scorpion toxin, ClTx, to the vascular endothelia growth factor receptor neuropilin-1” (Current Research in Structural Biology, 2021).

Entries after “also recorded” stand apart in the source; their conditions may differ.

Assay [1] concerns the target T1, human NRP1-b1 domain (Homo sapiens, UniProt O14786). Kind of assay: ITC competition: ClTx injected into NRP1-b1 in presence of EG00229. Type of assay: binding. The note with it: 800 μM ClTx into 40 μM NRP1-b1 + 200 μM EG00229; 50 mM sodium citrate pH 5.5, 150 mM NaCl, 32 °C.
Assay [2] deals with T1, human NRP1-b1 domain. Description: NMR competition titration of 15N-ClTx/NRP1-b1 with EG00229. Type of assay: binding. The settings on record: 413 μM EG00229 added to 55 μM 15N-ClTx + 125 μM NRP1-b1; 50 mM sodium citrate pH 5.5, 150 mM NaCl, 5% D2O, 298 K.
Assay [3] addresses T1, human NRP1-b1 domain. Description: ITC measurement of binding to NRP1-b1 domain. The note with it: pH 5.5, 32 °C. For orientation: Isothermal titration calorimetry measures the heat released or taken up as one component is titrated into another.

T1 sequence (O14786 273-427): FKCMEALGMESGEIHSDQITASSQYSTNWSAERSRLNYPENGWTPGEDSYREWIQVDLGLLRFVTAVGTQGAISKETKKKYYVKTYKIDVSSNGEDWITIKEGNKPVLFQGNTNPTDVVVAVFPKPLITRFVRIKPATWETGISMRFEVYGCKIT

Take `NC(N)=NCCC[C@H](NC(=O)c1sccc1NS(=O)(=O)c1cccc2nsnc12)C(=O)O` [EG00229]: on human NRP1-b1 domain [1], the “inhibition of the ClTx–NRP1-b1 interaction by EG00229” value was “fully inhibited; also recorded: completely blocks chlorotoxin from binding”. Further, at human NRP1-b1 domain [2], the “recovery of backbone signal of 15N ClTx on addition of EG00229” value was “completely recovered”. Moreover, the “binding strength, in words” value at human NRP1-b1 domain [3] is listed as “strong binding”.
